Measured values from PMC12090182, “Repurposing of the RIPK1-Selective Benzo[1,4]oxazepin-4-one Scaffold for the Development of a Type III LIMK1/2 Inhibitor” (ACS Chemical Biology, 2025).

Test system: MRC-9 cells
Assay: Multiplex high-content viability assessment
Type: cell-based
Conditions: for Cell count normalized to cells treated with DMSO control / Cell count per well / Population Fragmented Nuclei (%) / Population Healthy Nuclei (%) / Population Pyknosed Nuclei (%) / Population apoptotic cell (%) / Population cell that influence microtubule strucutre (%) / Population with increased mitochondrial mass (%) / Population with membrane disruption (%): human fibroblast
Protocol: To assess the influence on cell health, a high-content screening in living cells called the multiplex high-content assay, as described previously by Tjaden et al., was performed.[38] In brief, HEK293T (ATCC CRL-1573) and U2OS (ATCCHTB-96) were cultured in DMEM plus L-glutamine (high glucose) supplemented by 10% FBS (Gibco) and penicillin/streptomycin (Gibco). MRC-9 fibroblasts ([…]) were cultured in EMEM plus L-glutamine supplemented by 10% FBS (Gibco) and penicillin/streptomycin (Gibco). Cells were seeded at a density of 1250 cells per well in a 384-well plate in a culture medium (cell culture microplate, PS, f-bottom, μClear, 781091, Greiner), with a volume of 50 μL per well. All outer wells were filled with 100 μL of PBS buffer (Gibco). […] The cell shape and fluorescence were measured before treatment and 12, 24, and 48 h after compound treatment using the CQ1 high-content confocal microscope (Yokogawa, Musashino, Japan). […] The compounds were tested at 1 and 10 μM, respectively. Acquired images of the cells were processed using Yokogawa CellPathfinder software (v3.04.02.02). […] Results were normalized to cells exposed to 0.1% DMSO. All compounds were tested in biological duplicates, and SEM (standard error of mean) was calculated of biological duplicates.

SMILES: CN1C(=O)[C@@H](N2CCc3c(C(N)=O)nn(Cc4ccccc4)c3C2=O)COc2ccccc21 [Compound 11]
- Cell count normalized to cells treated with DMSO control (1 µM, 0 h, replicate 1): 1.108
- Cell count per well (1 µM, 0 h, replicate 1): 166
- Population Fragmented Nuclei (%) (1 µM, 0 h, replicate 1): 16.15%
- Population Healthy Nuclei (%) (1 µM, 0 h, replicate 1): 68.94%
- Population Pyknosed Nuclei (%) (1 µM, 0 h, replicate 1): 14.91%
- Population apoptotic cell (%) (1 µM, 0 h, replicate 1): 29.17%
- Population cell that influence microtubule strucutre (%) (1 µM, 0 h, replicate 1): 21.62%
- Population with increased mitochondrial mass (%) (1 µM, 0 h, replicate 1): 7.21%
- Population with membrane disruption (%) (1 µM, 0 h, replicate 1): 0.00%
- Cell count normalized to cells treated with DMSO control (1 µM, 0 h, replicate 2): 0.9027
- Cell count per well (1 µM, 0 h, replicate 2): 161
- Population Fragmented Nuclei (%) (1 µM, 0 h, replicate 2): 20.65%
- Population Healthy Nuclei (%) (1 µM, 0 h, replicate 2): 50.97%
- Population Pyknosed Nuclei (%) (1 µM, 0 h, replicate 2): 28.39%
- Population apoptotic cell (%) (1 µM, 0 h, replicate 2): 29.55%
- Population cell that influence microtubule strucutre (%) (1 µM, 0 h, replicate 2): 43.04%
- Population with increased mitochondrial mass (%) (1 µM, 0 h, replicate 2): 7.59%
- Population with membrane disruption (%) (1 µM, 0 h, replicate 2): 5.06%
- Cell count normalized to cells treated with DMSO control (1 µM, 12 h, replicate 1): 1.109
- Cell count per well (1 µM, 12 h, replicate 1): 167
- Population Fragmented Nuclei (%) (1 µM, 12 h, replicate 1): 8.64%
- Population Healthy Nuclei (%) (1 µM, 12 h, replicate 1): 75.31%
- Population Pyknosed Nuclei (%) (1 µM, 12 h, replicate 1): 16.05%
- Population apoptotic cell (%) (1 µM, 12 h, replicate 1): 34.62%
- Population cell that influence microtubule strucutre (%) (1 µM, 12 h, replicate 1): 20.49%
- Population with increased mitochondrial mass (%) (1 µM, 12 h, replicate 1): 3.28%
- Population with membrane disruption (%) (1 µM, 12 h, replicate 1): 0.82%
- Cell count normalized to cells treated with DMSO control (1 µM, 12 h, replicate 2): 0.8825
- Cell count per well (1 µM, 12 h, replicate 2): 147
- Population Fragmented Nuclei (%) (1 µM, 12 h, replicate 2): 22.70%
- Population Healthy Nuclei (%) (1 µM, 12 h, replicate 2): 46.81%
- Population Pyknosed Nuclei (%) (1 µM, 12 h, replicate 2): 30.50%
- Population apoptotic cell (%) (1 µM, 12 h, replicate 2): 34.88%
- Population cell that influence microtubule strucutre (%) (1 µM, 12 h, replicate 2): 56.06%
- Population with increased mitochondrial mass (%) (1 µM, 12 h, replicate 2): 10.61%
- Population with membrane disruption (%) (1 µM, 12 h, replicate 2): 4.55%
- Cell count normalized to cells treated with DMSO control (1 µM, 24 h, replicate 1): 1.1208
- Cell count per well (1 µM, 24 h, replicate 1): 169
- Population Fragmented Nuclei (%) (1 µM, 24 h, replicate 1): 16.36%
- Population Healthy Nuclei (%) (1 µM, 24 h, replicate 1): 70.30%
- Population Pyknosed Nuclei (%) (1 µM, 24 h, replicate 1): 13.33%
- Population apoptotic cell (%) (1 µM, 24 h, replicate 1): 45.45%
- Population cell that influence microtubule strucutre (%) (1 µM, 24 h, replicate 1): 18.10%
- Population with increased mitochondrial mass (%) (1 µM, 24 h, replicate 1): 3.45%
- Population with membrane disruption (%) (1 µM, 24 h, replicate 1): 1.72%
- Cell count normalized to cells treated with DMSO control (1 µM, 24 h, replicate 2): 0.8977
- Cell count per well (1 µM, 24 h, replicate 2): 148
- Population Fragmented Nuclei (%) (1 µM, 24 h, replicate 2): 25.34%
- Population Healthy Nuclei (%) (1 µM, 24 h, replicate 2): 47.26%
- Population Pyknosed Nuclei (%) (1 µM, 24 h, replicate 2): 27.40%
- Population apoptotic cell (%) (1 µM, 24 h, replicate 2): 50.00%
- Population cell that influence microtubule strucutre (%) (1 µM, 24 h, replicate 2): 57.97%
- Population with increased mitochondrial mass (%) (1 µM, 24 h, replicate 2): 11.59%
- Population with membrane disruption (%) (1 µM, 24 h, replicate 2): 5.80%
- Cell count normalized to cells treated with DMSO control (1 µM, 48 h, replicate 1): 1.035
- Cell count per well (1 µM, 48 h, replicate 1): 157
- Population Fragmented Nuclei (%) (1 µM, 48 h, replicate 1): 12.50%
- Population Healthy Nuclei (%) (1 µM, 48 h, replicate 1): 75.00%
- Population Pyknosed Nuclei (%) (1 µM, 48 h, replicate 1): 12.50%
- Population apoptotic cell (%) (1 µM, 48 h, replicate 1): 68.42%
- Population cell that influence microtubule strucutre (%) (1 µM, 48 h, replicate 1): 16.67%
- Population with increased mitochondrial mass (%) (1 µM, 48 h, replicate 1): 3.51%
- Population with membrane disruption (%) (1 µM, 48 h, replicate 1): 0.88%
- Cell count normalized to cells treated with DMSO control (1 µM, 48 h, replicate 2): 0.8596
- Cell count per well (1 µM, 48 h, replicate 2): 140
- Population Fragmented Nuclei (%) (1 µM, 48 h, replicate 2): 27.61%
- Population Healthy Nuclei (%) (1 µM, 48 h, replicate 2): 55.22%
- Population Pyknosed Nuclei (%) (1 µM, 48 h, replicate 2): 17.16%
- Population apoptotic cell (%) (1 µM, 48 h, replicate 2): 39.13%
- Population cell that influence microtubule strucutre (%) (1 µM, 48 h, replicate 2): 47.30%
- Population with increased mitochondrial mass (%) (1 µM, 48 h, replicate 2): 9.46%
- Population with membrane disruption (%) (1 µM, 48 h, replicate 2): 2.70%
- cytotoxicity (1 μM, MRC-9): no cytotoxicity
- Cell count normalized to cells treated with DMSO control (10 µM, 0 h, replicate 1): 0.9342
- Cell count per well (10 µM, 0 h, replicate 1): 140
- Population Fragmented Nuclei (%) (10 µM, 0 h, replicate 1): 19.23%
- Population Healthy Nuclei (%) (10 µM, 0 h, replicate 1): 57.69%
- Population Pyknosed Nuclei (%) (10 µM, 0 h, replicate 1): 23.08%
- Population apoptotic cell (%) (10 µM, 0 h, replicate 1): 33.33%
- Population cell that influence microtubule strucutre (%) (10 µM, 0 h, replicate 1): 24.00%
- Population with increased mitochondrial mass (%) (10 µM, 0 h, replicate 1): 6.67%
- Population with membrane disruption (%) (10 µM, 0 h, replicate 1): 1.33%
- Cell count normalized to cells treated with DMSO control (10 µM, 0 h, replicate 2): 0.8634
- Cell count per well (10 µM, 0 h, replicate 2): 154
- Population Fragmented Nuclei (%) (10 µM, 0 h, replicate 2): 23.88%
- Population Healthy Nuclei (%) (10 µM, 0 h, replicate 2): 43.28%
- Population Pyknosed Nuclei (%) (10 µM, 0 h, replicate 2): 32.84%
- Population apoptotic cell (%) (10 µM, 0 h, replicate 2): 40.91%
- Population cell that influence microtubule strucutre (%) (10 µM, 0 h, replicate 2): 39.66%
- Population with increased mitochondrial mass (%) (10 µM, 0 h, replicate 2): 15.52%
- Population with membrane disruption (%) (10 µM, 0 h, replicate 2): 8.62%
- Cell count normalized to cells treated with DMSO control (10 µM, 12 h, replicate 1): 0.8966
- Cell count per well (10 µM, 12 h, replicate 1): 135
- Population Fragmented Nuclei (%) (10 µM, 12 h, replicate 1): 18.46%
- Population Healthy Nuclei (%) (10 µM, 12 h, replicate 1): 53.08%
- Population Pyknosed Nuclei (%) (10 µM, 12 h, replicate 1): 28.46%
- Population apoptotic cell (%) (10 µM, 12 h, replicate 1): 67.57%
- Population cell that influence microtubule strucutre (%) (10 µM, 12 h, replicate 1): 69.57%
- Population with increased mitochondrial mass (%) (10 µM, 12 h, replicate 1): 15.94%
- Population with membrane disruption (%) (10 µM, 12 h, replicate 1): 1.45%
- Cell count normalized to cells treated with DMSO control (10 µM, 12 h, replicate 2): 0.8165
- Cell count per well (10 µM, 12 h, replicate 2): 136
- Population Fragmented Nuclei (%) (10 µM, 12 h, replicate 2): 28.57%
- Population Healthy Nuclei (%) (10 µM, 12 h, replicate 2): 55.46%
- Population Pyknosed Nuclei (%) (10 µM, 12 h, replicate 2): 15.97%
- Population apoptotic cell (%) (10 µM, 12 h, replicate 2): 47.37%
- Population cell that influence microtubule strucutre (%) (10 µM, 12 h, replicate 2): 83.33%
- Population with increased mitochondrial mass (%) (10 µM, 12 h, replicate 2): 30.30%
- Population with membrane disruption (%) (10 µM, 12 h, replicate 2): 7.58%
- Cell count normalized to cells treated with DMSO control (10 µM, 24 h, replicate 1): 0.8754
- Cell count per well (10 µM, 24 h, replicate 1): 132
- Population Fragmented Nuclei (%) (10 µM, 24 h, replicate 1): 17.21%
- Population Healthy Nuclei (%) (10 µM, 24 h, replicate 1): 55.74%
- Population Pyknosed Nuclei (%) (10 µM, 24 h, replicate 1): 27.05%
- Population apoptotic cell (%) (10 µM, 24 h, replicate 1): 60.61%
- Population cell that influence microtubule strucutre (%) (10 µM, 24 h, replicate 1): 72.06%
- Population with increased mitochondrial mass (%) (10 µM, 24 h, replicate 1): 17.65%
- Population with membrane disruption (%) (10 µM, 24 h, replicate 1): 1.47%
- Cell count normalized to cells treated with DMSO control (10 µM, 24 h, replicate 2): 0.8068
- Cell count per well (10 µM, 24 h, replicate 2): 133
- Population Fragmented Nuclei (%) (10 µM, 24 h, replicate 2): 30.89%
- Population Healthy Nuclei (%) (10 µM, 24 h, replicate 2): 56.10%
- Population Pyknosed Nuclei (%) (10 µM, 24 h, replicate 2): 13.01%
- Population apoptotic cell (%) (10 µM, 24 h, replicate 2): 56.25%
- Population cell that influence microtubule strucutre (%) (10 µM, 24 h, replicate 2): 65.22%
- Population with increased mitochondrial mass (%) (10 µM, 24 h, replicate 2): 20.29%
- Population with membrane disruption (%) (10 µM, 24 h, replicate 2): 5.80%
- Cell count normalized to cells treated with DMSO control (10 µM, 48 h, replicate 1): 0.8898
- Cell count per well (10 µM, 48 h, replicate 1): 135
- Population Fragmented Nuclei (%) (10 µM, 48 h, replicate 1): 23.81%
- Population Healthy Nuclei (%) (10 µM, 48 h, replicate 1): 54.76%
- Population Pyknosed Nuclei (%) (10 µM, 48 h, replicate 1): 21.43%
- Population apoptotic cell (%) (10 µM, 48 h, replicate 1): 85.19%
- Population cell that influence microtubule strucutre (%) (10 µM, 48 h, replicate 1): 56.52%
- Population with increased mitochondrial mass (%) (10 µM, 48 h, replicate 1): 14.49%
- Population with membrane disruption (%) (10 µM, 48 h, replicate 1): 0.00%
- Cell count normalized to cells treated with DMSO control (10 µM, 48 h, replicate 2): 0.8904
- Cell count per well (10 µM, 48 h, replicate 2): 145
- Population Fragmented Nuclei (%) (10 µM, 48 h, replicate 2): 38.30%
- Population Healthy Nuclei (%) (10 µM, 48 h, replicate 2): 58.16%
- Population Pyknosed Nuclei (%) (10 µM, 48 h, replicate 2): 3.55%
- Population apoptotic cell (%) (10 µM, 48 h, replicate 2): 60.00%
- Population cell that influence microtubule strucutre (%) (10 µM, 48 h, replicate 2): 71.95%
- Population with increased mitochondrial mass (%) (10 µM, 48 h, replicate 2): 18.29%
- Population with membrane disruption (%) (10 µM, 48 h, replicate 2): 3.66%
